Measurements from PubChem BioAssay (NCI).
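Five compound concentrations were applied to cells in 96-well plates for 48 hours; endpoints were derived by simple linear interpolation of the resulting dose-response curve. Abbreviation: GI50, concentration required for 50% inhibition of growth. At the TGI there is no net growth.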

How the values were obtained:
Assay in all cases: NCI-60 cell line screen, 48 h
COLO 205 colon = system: COLO 205 colon
OVCAR-3 ovarian = system: OVCAR-3 ovarian
HOP-62 NSCLC = system: HOP-62 NSCLC
HCT-116 colon = system: HCT-116 colon
IGROV1 ovarian = system: IGROV1 ovarian
SK-MEL-2 melanoma = system: SK-MEL-2 melanoma
SR leukemia = system: SR leukemia
HL-60(TB) leukemia = system: HL-60(TB) leukemia
MOLT-4 leukemia = system: MOLT-4 leukemia
A549 NSCLC = system: A549 NSCLC

Structure (SMILES)	TGI (COLO 205 colon) [µM]	TGI (OVCAR-3 ovarian) [µM]	TGI (HOP-62 NSCLC) [µM]	TGI (HCT-116 colon) [µM]	TGI (IGROV1 ovarian) [µM]	TGI (SK-MEL-2 melanoma) [µM]	TGI (SR leukemia) [µM]	TGI (HL-60(TB) leukemia) [µM]	TGI (MOLT-4 leukemia) [µM]	TGI (A549 NSCLC) [µM]	GI50 (COLO 205 colon) [µM]	GI50 (OVCAR-3 ovarian) [µM]	GI50 (HOP-62 NSCLC) [µM]	GI50 (HCT-116 colon) [µM]	GI50 (IGROV1 ovarian) [µM]	GI50 (SK-MEL-2 melanoma) [µM]	GI50 (SR leukemia) [µM]	GI50 (HL-60(TB) leukemia) [µM]	GI50 (MOLT-4 leukemia) [µM]	GI50 (A549 NSCLC) [µM]
COc1cccc(C2c3cc4c(cc3OC(N3CCCC3)C2C)OCO4)c1O (stereo not given)	10.5	8.02	45.7	35	99.1	30.4	25	31.5	93	> 67.1	–	–	–	–	–	–	–	–	–	–
COc1cc(CNC2c3cc4c(cc3C(c3cc(OC)c(OC)c(OC)c3)[C@H]3C(=O)OCC23)OCO4)cc(OC)c1OC (stereo not given in full)	0.37	> 100	0.631	0.707	> 100	> 100	> 100	0.515	> 100	> 100	–	–	–	–	–	–	–	–	–	–
C[N+](C)(C)CC(=O)N/N=C(\C(=O)NC1=C(Cl)C(=O)c2ccccc2C1=O)C(C#N)c1csc(-c2ccc([N+](=O)[O-])cc2)n1 (stereo not given)	> 100	> 100	> 100	> 100	> 100	> 100	> 100	> 100	> 100	> 100	–	–	–	–	–	–	–	–	–	–
O=C1/C(=C\c2ccccn2)c2ccccc2N1c1c(Cl)cccc1Cl	4.81	3.25	5.04	3.32	6.92	6.32	> 100	> 29.6	> 65.7	14.6	2.04	1.66	2.07	1.7	2.26	2.53	5.07	3.75	4.2	2.29
O=c1c(Cl)c(Cl)c(=O)c2sc3cc(Cl)ccc3[nH]c1=2	> 100	30.7	> 100	> 100	> 100	> 100	21.5	23.7	14.5	> 100	–	–	–	–	–	–	–	–	–	–
CC1(CCC(=O)OC2CCCCC2)OCCO1	> 100	> 100	> 100	> 100	> 100	> 100	> 100	> 100	> 100	> 100	–	–	–	–	–	–	–	–	–	–
CC(C)(C)[Si](C)(C)OC1[C@@H](O[Si](C)(C)C(C)(C)C)[C@@H](CNC(=O)NC(=O)CCl)O[C@H]1n1cnc2c(NC(=O)Nc3ccccc3)ncnc21 (stereo not given in full)	3.5	1.49	0.953	1.51	0.233	2.01	0.446	0.488	0.913	3.51	1.41	0.446	0.348	0.719	0.111	1.13	0.117	0.166	0.339	1.19
C=C1CCC2C(C)(COC(=O)CC)C(OC(=O)CC)CCC2(C)C1C/C=C1/C(=O)OCC1OC(=O)CC (stereo not given)	3.96	3.15	3.27	2.55	3.69	3.02	5.28	5.85	11.6	4.22	2.1	1.77	1.7	1.14	1.9	1.44	1.58	1.82	2.62	2.03
Cc1cc(CC(C)CC(C)(C)C)n(O)c(=O)c1 (stereo not given) (tested in a mixture with another compound)	59.6	18.6	16.1	13.2	16.7	> 100	2.97	0.525	0.714	> 49.7	13.4	0.745	0.677	0.406	0.464	0.766	0.286	0.189	0.246	0.5
Cc1cc(C)c(Cn2cnc3c(Cl)ncnc32)c(C)c1CCl	> 100	53.9	> 100	> 100	> 100	> 100	47.4	59.9	63.4	> 100	79.1	18.1	> 100	68.8	> 100	> 100	12.7	27.2	23.3	37.7
Cc1nc(N2CCC3(CC2)CO[C@@H](C)[C@H]3N)c(CO)nc1Sc1ccnc(N)c1Cl	> 100	> 100	> 100	> 100	> 100	> 100	> 100	> 100	> 100	> 100	> 73.4	> 85.3	28	59.7	0.629	> 100	11.9	> 100	> 100	> 100
